Series [1] is described as follows: acute toxicity, mouse. Conditions: in vivo. The source says: (§1) o) compound dissolved in physiological salt solution.
(§2) x) compound suspended in 5% arabic gum.

Series [2] is described as follows: acute toxicity, guinea-pig. Conditions: in vivo.
Text: as §1, §2

Series [3] can be described thus: survival / late mortality of guinea-pigs treated in the broncholitic activity test (48 hours, oral route). Conditions: guinea pig, in vivo, po.
Series [4] relates to bronchial spasm caused by a broncho-constrictor aerosol of histamine hydrochloride. The series is described as follows: broncholitic activity in the awake guinea-pig: percentage protection against bronchial spasm caused by histamine hydrochloride aerosol. The format is in vivo.
For series [5] the following is noted: bronchial asthma therapy; known for the comparison compound; cited from earlier work.
For series [6], the system named is guinea-pigs. The series is described as follows: survival / late mortality of guinea-pigs treated in the broncholitic activity test (48 hours, oral route). Conditions: in words; tardy mortality.
Series [7] relates to effects of the acoustic stimulus (motory agitation, clonic and tonic convulsions). The series is described as follows: strengthening of the andiogenic convulsions test in the mouse. Conditions: intraperitoneal dose of 50 mg/kg. The format is in vivo. The source says: (§3) The undesired action on the central nervous system has been evaluated with the strengthening of the andiogenic convulsions test in the mouse (Werboff et coll., Amer. J. Physiol., 201, 830, 1961). As is well known, the theophilline derivatives potentiate the effects of the acoustic stimulus (motory agitation, clonic and tonic convulsions which may lead to the death of the animals).

Experiment in series [8]: as above
Format: in vivo. Conditions: in vivo, ip, intraperitoneal dose of 50 mg/kg, read-out: death of treated animals.
Text: as §3

[9] abbreviates: ip, dissolved in physiological salt solution.
The mark [10] stands for this setting: po, per os, suspended in 5% arabic gum.
The mark [11] stands for this setting: i.p. route, 25 mg/kg, after 30' of the administration.
Setting [12] is: i.p. route, 50 mg/kg, after 30' of the administration.
The mark [13] stands for this setting: i.p. route, 75 mg/kg, after 30' of the administration.
Setting [14] is: oral route, 75 mg/kg, after 60' of the administration.
The mark [15] stands for this setting: oral route, 150 mg/kg, after 60' of the administration.
[16] abbreviates: oral route, 300 mg/kg, after 60' of the administration.

Structures are written as SMILES.

As usually defined, the LD50 is the dose at which mortality reaches 50%. For `Cc1ccnc(C)c1C(=O)OC(C)c1nc2c(c(=O)n(C)c(=O)n2C)n1C` (stereo not drawn) [8-[α-(2,4-dimethylnicotinoyloxy)-ethyl]-caffeine], the LD50 amounted to 320 mg/kg in series [1] (setting [9]) and 500 mg/kg in series [1] (setting [10]).

Take `CC(OC(=O)c1cccnc1)c1nc2c(c(=O)n(C)c(=O)n2C)n1C` (stereo not drawn) [8-[α-(nicotinoyloxy)-ethyl]-caffeine]: the LD50 in series [1] (setting [9]) came out at 445 mg/kg; in series [1] (setting [10]), 520 mg/kg; in series [2] (setting [9]) it was 220 mg/kg; in series [2] (setting [10]), 440 mg/kg.

`CC(OC(=O)c1cccnc1)c1nc2c(c(=O)n(C)c(=O)n2C)n1C.Cl` (stereo not drawn) [386/770, 8-[α-(nicotinoyloxy)-ethyl]-caffeine monohydrochloride]: the survival at 48 h in series [3] (75 mg/kg), in series [3] (150 mg/kg) and in series [3] (300 mg/kg) was 100% each time. Moreover, the “Protection percentage from the spasm caused by histamine” value (“Protection percentage” below) in series [4] (setting [11]) is 35%; in series [4] (setting [12]), 38%; in series [4] (setting [13]), 94%; in series [4] (setting [14]) it was 13%; in series [4] (setting [15]), 26%; in series [4] (setting [16]), 65%.

For `Cc1ccnc(C)c1C(=O)OC(C)c1nc2c(c(=O)n(C)c(=O)n2C)n1C.Cl` (stereo not drawn) [386/986, 8-[α-(2,4-dimethylnicotinoyloxy)-ethyl]-caffeine monohydrochloride], the survival at 48 h in series [3] (75 mg/kg), in series [3] (150 mg/kg) and in series [3] (300 mg/kg) was 100% in each case. Besides, the “Protection percentage” value came out at 22% in series [4] (setting [11]); 39% in series [4] (setting [12]); 85% in series [4] (setting [13]); 39% in series [4] (setting [14]); 54% in series [4] (setting [15]); 80% in series [4] (setting [16]).

With `Cn1c(=O)c2[nH]cnc2n(C)c1=O` [Aminophilline, reference compound], the undesired secondary effects result in series [5] is “excitement caused by caffeine and irritation of the gastric mucous membrane”. For the same compound, the “mortality of guinea-pigs subjected to the broncholitic activity test” value in series [6] is “tardy high mortality”. Besides, the “strengthening of the effects of the acoustic stimulus” value in series [7] is “remarkable strengthening of the effects of the acoustic stimulus”. The mortality in series [8] worked out at 50%. Besides, the “Protection percentage” value is reported as 24% in series [4] (setting [12]); 80% in series [4] (setting [13]); 100% in series [4] (i.p. route, 100 mg/kg, after 30' of the administration); 100% in series [4] (i.p. route, 150 mg/kg, after 30' of the administration); 14% in series [4] (oral route, 50 mg/kg, after 60' of the administration); 31% in series [4] (setting [14]). Moreover, the “Protection percentage” value in series [4] (oral route, 100 mg/kg, after 60' of the administration) was 92%; in series [4] (setting [15]) it was 95%.

The values are drawn from patent US3975389A, “Caffeine derivatives” (priority 1973, dated 1976).
